Experimental data published in PubChem BioAssay AID1963985 (Molecular Pharmacology Branch, DTP, NCI, 2024).

Test system: 252836-082-R-J2-PDC tumor spheroids, viability
Test: Anticancer human tumor 252836-082-R-J2-PDC patient-derived head and neck squamous cell carcinoma cell line growth inhibition [PI3K]
Settings: spheroids with HUVEC and MSC; for viability, T/C: stronger effect = lower value
Summary of the method: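 Spheroid viability read-out. Co-cultures contained the tumor line plus HUVEC and human MSCs. Each agent was paired with a PI3K inhibitor (inavolisib, alpelisib, duvelisib, copanlisib) across half-log dilutions starting at clinical Cmax, or at 10 microM when Cmax was unknown.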

[1] = curve of first compound, second compound 0.00316 µM
[2] = curve of first compound, second compound 0.01 µM
[3] = curve of first compound, second compound 0.0316 µM
[4] = curve of first compound, second compound 0.1 µM
[5] = curve of first compound, second compound 0.316 µM
[6] = curve of first compound, second compound 1 µM
[7] = second compound 0.00316 µM, first compound 0.0316 µM
[8] = second compound 0.00316 µM, first compound 0.1 µM
[9] = second compound 0.00316 µM, first compound 0.316 µM
[10] = second compound 0.00316 µM, first compound 1 µM
[11] = second compound 0.00316 µM, first compound 3.16 µM
[12] = second compound 0.00316 µM, first compound 10 µM
[13] = second compound 0.01 µM, first compound 0.0316 µM
[14] = second compound 0.01 µM, first compound 0.1 µM
[15] = second compound 0.01 µM, first compound 0.316 µM
[16] = second compound 0.01 µM, first compound 1 µM
[17] = second compound 0.01 µM, first compound 3.16 µM
[18] = second compound 0.01 µM, first compound 10 µM
[19] = second compound 0.0316 µM, first compound 0.0316 µM
[20] = second compound 0.0316 µM, first compound 0.1 µM
[21] = second compound 0.0316 µM, first compound 0.316 µM
[22] = second compound 0.0316 µM, first compound 1 µM
[23] = second compound 0.0316 µM, first compound 3.16 µM
[24] = second compound 0.0316 µM, first compound 10 µM
[25] = second compound 0.1 µM, first compound 0.0316 µM
[26] = second compound 0.1 µM, first compound 0.1 µM
[27] = second compound 0.1 µM, first compound 0.316 µM
[28] = second compound 0.1 µM, first compound 1 µM
[29] = second compound 0.1 µM, first compound 3.16 µM
[30] = second compound 0.1 µM, first compound 10 µM
[31] = second compound 0.316 µM, first compound 0.0316 µM
[32] = second compound 0.316 µM, first compound 0.1 µM
[33] = second compound 0.316 µM, first compound 0.316 µM
[34] = second compound 0.316 µM, first compound 1 µM
[35] = second compound 0.316 µM, first compound 3.16 µM
[36] = second compound 0.316 µM, first compound 10 µM
[37] = second compound 1 µM, first compound 0.0316 µM
[38] = second compound 1 µM, first compound 0.1 µM
[39] = second compound 1 µM, first compound 0.316 µM
[40] = second compound 1 µM, first compound 1 µM
[41] = second compound 1 µM, first compound 3.16 µM
[42] = second compound 1 µM, first compound 10 µM
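Also: spheroids exposed to agents for seven days before readout.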
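For viability, T/C in this document: percent of vehicle DMSO control viability so 100% = untreated growth.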

## C=CC(=O)N1CCN(c2nc(=O)n(-c3c(C)ccnc3C(C)C)c3nc(-c4c(O)cccc4F)c(F)cc23)C(C)C1 (stereo unspecified) + COc1c(OCCCN2CCOCC2)ccc2c3n(c(=NC(=O)c4cnc(N)nc4)nc12)CCN3
[1]
  IC50: > 10 µM
[2]
  IC50: > 10 µM
[3]
  IC50: > 10 µM
[4]
  IC50: < 0.0316 µM
[5]
  IC50: < 0.0316 µM
[6]
  IC50: < 0.0316 µM
[7]
  viability, T/C: 92.7%
[8]
  viability, T/C: 94.5%
[9]
  viability, T/C: 96.1%
[10]
  viability, T/C: 99.7%
[11]
  viability, T/C: 118%
[12]
  viability, T/C: 94.9%
[13]
  viability, T/C: 74.4%
[14]
  viability, T/C: 73.8%
[15]
  viability, T/C: 89.2%
[16]
  viability, T/C: 88.7%
[17]
  viability, T/C: 98.2%
[18]
  viability, T/C: 82.2%
[19]
  viability, T/C: 63%
[20]
  viability, T/C: 56.9%
[21]
  viability, T/C: 55.3%
[22]
  viability, T/C: 75.8%
[23]
  viability, T/C: 77.4%
[24]
  viability, T/C: 73.3%
[25]
  viability, T/C: 36%
[26]
  viability, T/C: 34.6%
[27]
  viability, T/C: 34.9%
[28]
  viability, T/C: 45.1%
[29]
  viability, T/C: 45.1%
[30]
  viability, T/C: 42.8%
[31]
  viability, T/C: 19.2%
[32]
  viability, T/C: 17.3%
[33]
  viability, T/C: 22.8%
[34]
  viability, T/C: 17.3%
[35]
  viability, T/C: 20.8%
[36]
  viability, T/C: 15.9%
[37]
  viability, T/C: 5.1%
[38]
  viability, T/C: 5.86%
[39]
  viability, T/C: 5.59%
[40]
  viability, T/C: 5.93%
[41]
  viability, T/C: 7.35%
[42]
  viability, T/C: 3.61%

## CCCS(=O)(=O)Nc1ccc(F)c(C(=O)c2c[nH]c3ncc(-c4ccc(Cl)cc4)cc23)c1F + COc1c(OCCCN2CCOCC2)ccc2c3n(c(=NC(=O)c4cnc(N)nc4)nc12)CCN3
[1]
  IC50: 4.4 µM
[2]
  IC50: 4.97 µM
[3]
  IC50: 2.96 µM
[4]
  IC50: < 0.0316 µM
[5]
  IC50: < 0.0316 µM
[6]
  IC50: < 0.0316 µM
[7]
  viability, T/C: 88.2%
[8]
  viability, T/C: 92.8%
[9]
  viability, T/C: 80.6%
[10]
  viability, T/C: 90.1%
[11]
  viability, T/C: 67.2%
[12]
  viability, T/C: 7.48%
[13]
  viability, T/C: 71.8%
[14]
  viability, T/C: 73.6%
[15]
  viability, T/C: 72.9%
[16]
  viability, T/C: 87.5%
[17]
  viability, T/C: 79.7%
[18]
  viability, T/C: 8.12%
[19]
  viability, T/C: 64.8%
[20]
  viability, T/C: 57.6%
[21]
  viability, T/C: 67.9%
[22]
  viability, T/C: 59%
[23]
  viability, T/C: 49.8%
[24]
  viability, T/C: 9.78%
[25]
  viability, T/C: 32.3%
[26]
  viability, T/C: 39.8%
[27]
  viability, T/C: 43.3%
[28]
  viability, T/C: 43.3%
[29]
  viability, T/C: 31.7%
[30]
  viability, T/C: 4.74%
[31]
  viability, T/C: 16.1%
[32]
  viability, T/C: 15.8%
[33]
  viability, T/C: 16.7%
[34]
  viability, T/C: 19.4%
[35]
  viability, T/C: 18.1%
[36]
  viability, T/C: 1.83%
[37]
  viability, T/C: 5.69%
[38]
  viability, T/C: 5.15%
[39]
  viability, T/C: 7.11%
[40]
  viability, T/C: 7.02%
[41]
  viability, T/C: 5.99%
[42]
  viability, T/C: 1.31%

## C[C@@H](NC(=O)c1ncnc(N)c1Cl)c1ncc(C(=O)Nc2cc(C(F)(F)F)c(Cl)cn2)s1
Compound 0.0316 µM
  viability, T/C: 98.2% [middle of 4 runs]
Compound 0.1 µM
  viability, T/C: 93% [middle of 4 runs]
Compound 0.316 µM
  viability, T/C: 104% [middle of 4 runs]
Compound 1 µM
  viability, T/C: 109% [middle of 4 runs]
Compound 3.16 µM
  viability, T/C: 96.5% [middle of 4 runs]
Compound 10 µM
  viability, T/C: 87.4% [middle of 4 runs]
Curve of compound
  IC50: > 10 µM
